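48-hour exposure; five concentrations; linearly interpolated endpoints. GI50 is the concentration that inhibits growth by half. The concentration for full growth arrest is given as TGI.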

Some test systems named below: HT29 colon; HOP-92 NSCLC; NCI-H522 lung; SR leukemia; BT-549 breast; LOX IMVI melanoma; UACC-257 melanoma; A549 NSCLC; SN12C renal; MALME-3M melanoma; SK-MEL-5 melanoma.
Holding throughout (test): NCI tumour cell line growth inhibition, 48 h

For the compound `CC[C@@]1(OC(=O)CN(C)C)C(=O)OCc2c1cc1n(c2=O)Cc2cc3c(N)cccc3nc2-1`, the GI50 is 0.118 µM in the experiment on HT29 colon; 0.0239 µM in the experiment with HOP-92 NSCLC; 0.0744 µM in the experiment with NCI-H522 lung; less than 0.01 µM with SR leukemia; 0.0634 µM in the experiment with BT-549 breast; 0.014 µM in the experiment with LOX IMVI melanoma. Moreover, the figures for the GI50 in the experiment with UACC-257 melanoma and in the experiment on A549 NSCLC were 0.0933 µM and 0.0575 µM, respectively. For the same compound, the TGI was more than 100 µM in the experiment with HT29 colon; 0.785 µM in the experiment with HOP-92 NSCLC; 3.36 µM with NCI-H522 lung; 0.176 µM with SR leukemia; more than 100 µM with BT-549 breast; 0.162 µM in the experiment on LOX IMVI melanoma. Also, the results for the TGI with UACC-257 melanoma and with A549 NSCLC were 0.981 µM and 1.37 µM, respectively.
With `COc1ccc(C(=O)O[C@H]2CC[C@@]3(C)[C@@H]4CC[C@H]5[C@]6(O)C[C@H](O)[C@@]7(O)[C@@H](CN8C[C@@H](C)CC[C@H]8[C@@]7(C)O)[C@]6(O)C[C@@]53OC24O)cc1OC`, the TGI in the experiment on HT29 colon, in the experiment with SN12C renal, in the experiment with HOP-92 NSCLC, with NCI-H522 lung, in the experiment with SR leukemia and in the experiment on BT-549 breast was more than 100 µM throughout. Moreover, the TGI in the experiment on LOX IMVI melanoma, in the experiment with UACC-257 melanoma, in the experiment on MALME-3M melanoma, with SK-MEL-5 melanoma and with A549 NSCLC was more than 100 µM throughout.
Regarding `Nc1c(OCC(=O)O)ccc2cc(S(=O)(=O)O)ccc12`, the TGI in the experiment with SN12C renal, in the experiment with NCI-H522 lung, with BT-549 breast, in the experiment on LOX IMVI melanoma, in the experiment with UACC-257 melanoma and in the experiment with MALME-3M melanoma was more than 100 µM in each case. Moreover, the TGI in the experiment on SK-MEL-5 melanoma and in the experiment on A549 NSCLC was more than 100 µM each time.
As for `COc1ccc(NC(=S)NNC(=O)c2nsc3ccccc23)cc1`, the TGI in the experiment on HT29 colon is more than 100 µM; with SN12C renal, more than 100 µM; in the experiment with HOP-92 NSCLC, 83.5 µM; with SR leukemia it was more than 100 µM; in the experiment on LOX IMVI melanoma, more than 100 µM; with UACC-257 melanoma, more than 100 µM. Also, the TGI in the experiment with SK-MEL-5 melanoma and in the experiment on A549 NSCLC was more than 100 µM each time.
For the compound `C[C@]12Cc3cnc(-c4ccccc4)nc3C[C@@H]1CC[C@@H]1[C@@H]2CC[C@@]2(C)[C@H]1CC[C@]2(C)O`, the TGI was found to be 23.7 µM in the experiment on HT29 colon; 57.3 µM in the experiment on SN12C renal; 54.4 µM in the experiment on HOP-92 NSCLC; 31.2 µM in the experiment with NCI-H522 lung; 88.5 µM with SR leukemia; 54.6 µM in the experiment on BT-549 breast. The TGI came to 31.3 µM in the experiment on LOX IMVI melanoma; 44.9 µM in the experiment with UACC-257 melanoma; 43.5 µM with MALME-3M melanoma; 42.9 µM with SK-MEL-5 melanoma; 57.6 µM in the experiment with A549 NSCLC.
Turning to `CCC1C(C#N)=C(O)NC(O)=C1C#N`, the TGI in the experiment with HT29 colon, in the experiment with SN12C renal, in the experiment on HOP-92 NSCLC, in the experiment with NCI-H522 lung, in the experiment on LOX IMVI melanoma and in the experiment on UACC-257 melanoma was more than 100 µM throughout. Also, the TGI in the experiment on MALME-3M melanoma, in the experiment with SK-MEL-5 melanoma and in the experiment with A549 NSCLC was more than 100 µM in each case.
Regarding `NC1C=NNC1=O` (stereo unspecified), the TGI in the experiment with HT29 colon, with SN12C renal, in the experiment with NCI-H522 lung, in the experiment on LOX IMVI melanoma, with UACC-257 melanoma and with MALME-3M melanoma was more than 100 µM in each case. Further, the TGI in the experiment with SK-MEL-5 melanoma and with A549 NSCLC was more than 100 µM each time.
Turning to `O=C1CCCC/C1=C1/SC(=Nc2ccccc2)C(=Nc2ccccc2)N1c1ccccc1`, the TGI with HT29 colon, in the experiment with SN12C renal, with HOP-92 NSCLC, in the experiment with NCI-H522 lung, with SR leukemia and with BT-549 breast was more than 100 µM in each case. In the experiment with MALME-3M melanoma, the TGI was more than 100 µM.
With `COc1ccc(C(=O)NC2=C(Cl)C(=O)c3ccccc3C2=O)cc1`, the TGI in the experiment with HT29 colon was 19.4 µM; in the experiment on SN12C renal it was 9.46 µM; with HOP-92 NSCLC, 2.73 µM; in the experiment with NCI-H522 lung it was 1.49 µM; in the experiment with SR leukemia, more than 19.6 µM; in the experiment on BT-549 breast, 9.64 µM. Moreover, the TGI is 6.66 µM in the experiment on LOX IMVI melanoma; 4.5 µM in the experiment on UACC-257 melanoma; 3.19 µM with MALME-3M melanoma; 4.59 µM with SK-MEL-5 melanoma; more than 36.7 µM in the experiment on A549 NSCLC.
On to `Clc1cc2ccccc2c2ccccc12`, for which the TGI in the experiment on HT29 colon is more than 100 µM; in the experiment with SN12C renal it was more than 100 µM; in the experiment with HOP-92 NSCLC it was 87.3 µM; with NCI-H522 lung, more than 100 µM; with SR leukemia it was more than 100 µM; in the experiment on BT-549 breast it was 96.7 µM. Moreover, the TGI in the experiment with LOX IMVI melanoma, in the experiment on UACC-257 melanoma, in the experiment on MALME-3M melanoma, with SK-MEL-5 melanoma and in the experiment with A549 NSCLC was more than 100 µM in each case.
In the case of `O=C(O)C(O)(c1ccc(-c2ccccc2)cc1)c1ccc(-c2ccccc2)cc1`, the TGI is more than 100 µM in the experiment with HT29 colon; 60.7 µM in the experiment with SN12C renal; 41.4 µM in the experiment on HOP-92 NSCLC; 47.5 µM in the experiment with NCI-H522 lung; more than 100 µM in the experiment on SR leukemia; 42.7 µM with BT-549 breast. The TGI was 31.8 µM in the experiment on LOX IMVI melanoma; more than 100 µM in the experiment on UACC-257 melanoma; 60.4 µM in the experiment with MALME-3M melanoma; 37.4 µM in the experiment with SK-MEL-5 melanoma; more than 100 µM in the experiment with A549 NSCLC.
As for `CCOC(=O)c1nc2ccccc2n(CC)c1=O`, the TGI in the experiment with HT29 colon, in the experiment on SN12C renal, with HOP-92 NSCLC, in the experiment with NCI-H522 lung, in the experiment on SR leukemia and with BT-549 breast was more than 100 µM throughout. Moreover, the TGI in the experiment with LOX IMVI melanoma, in the experiment on UACC-257 melanoma, in the experiment with MALME-3M melanoma, in the experiment with SK-MEL-5 melanoma and in the experiment on A549 NSCLC was more than 100 µM in each case.
On to `Clc1ccc(C2CC(c3cccc(Nc4ccncc4)c3)=NN2c2ccc(Cl)cc2)cc1` (stereo unspecified), for which, in the experiment with HOP-92 NSCLC, the GI50 was 1.38 µM and the TGI was 2.79 µM. In the experiment with SK-MEL-5 melanoma, the GI50 is 1.74 µM and the TGI was 3.15 µM.

(Values after PubChem BioAssay (NCI).)
